Read-outs that look alike come from different tables or passages of the source. One block for each compound: values may come before it.
Experiments:
[1] = test system: Phosphorylation of ERK1/2 in A549 cells; assay: Phospho-ERK1/2 MSD assay in A549 cells; assay type: cell-based; details: read-out: p-ERK IC50 (2 h, A549; μM), 2 h compound treatment, A549 cells, EGF stimulated
Outline: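 Readout: MSD phospho-ERK1/2 signal after compound (2 or 4 h) and 10 min EGF stimulation at 10 ng/mL.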

[2] = test system: Phosphorylation of ERK1/2 in MIA PaCa-2 cells; assay: Phospho-ERK1/2 MSD assay in MIA PaCa-2 cells; assay type: cell-based; details: read-out: p-ERK IC50 (2 h, MiaPaCa-2; μM), 2 h compound treatment, MIA PaCa-2 cells, EGF stimulated
Outline: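 Phospho-ERK1/2 measured by MSD electrochemiluminescence kit in RIPA lysates of MIA PaCa-2 cells. Cells were treated with compound titrations for 2 or 4 h at 37 °C, 5% CO2, followed by a 10 min pulse of 10 ng/mL EGF.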

[3] = target: GDP-bound KRAS protein (aa 1-169), containing both G12C and C118A amino acid substitutions (Homo sapiens (Human), UniProt P01116, C118A/G12C); assay: Coupled nucleotide exchange assay (SOS-mediated nucleotide exchange, AlphaScreen); assay type: biochemical; details: read-out: Coupled exchange IC50 (5 min; μM); 5 min compound pre-incubation
Sequence of GDP-bound KRAS protein (aa 1-169), containing both G12C and C118A amino acid substitutions (P01116 other isoform, or with tags, fused parts or gaps G12C/C118A): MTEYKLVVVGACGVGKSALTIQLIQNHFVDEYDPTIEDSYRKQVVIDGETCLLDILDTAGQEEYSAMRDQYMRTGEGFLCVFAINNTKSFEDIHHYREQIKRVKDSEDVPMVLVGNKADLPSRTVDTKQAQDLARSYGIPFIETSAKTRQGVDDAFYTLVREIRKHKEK

- IC50 [1]: > 7.5 µM
- IC50 [2]: 0.035 µM
- IC50 [3]: 0.024 µM
SMILES: C=CC(=O)N1CCN(c2nc(=O)n(-c3c(C)ccnc3C(C)C)c3nc(-c4c(N)cccc4F)c(Cl)cc23)C[C@H]1C (atropisomer, axis not shown; (M)) [Example 92-2, (M)-7-(2-Amino-6-fluoro-phenyl)-6-chloro-1-(2-isopropyl-4-methyl-3-pyridyl)-4-[(3R)-3-methyl-4-prop-2-enoyl-piperazin-1-yl]pyrido[2,3-d]pyrimidin-2-one]

SMILES: C=CC(=O)N1C[C@H](C)N(c2nc(=O)n(-c3c(C)ccnc3C(C)C)c3nc(-c4ccsc4C)c(Cl)cc23)C[C@H]1C (atropisomer, axis not shown; (M)) [Example 92-3, (M)-6-Chloro-4-[(2S,5R)-2,5-dimethyl-4-prop-2-enoyl-piperazin-1-yl]-1-(2-isopropyl-4-methyl-3-pyridyl)-7-(2-methyl-3-thienyl)pyrido[2,3-d]pyrimidin-2-one]
- IC50 ([1]; Homo sapiens, A549, 2 h): > 7.5 µM
- IC50 ([2]; Homo sapiens, MIA PaCa-2, 2 h): 0.094 µM
- IC50 [3]: 0.095 µM

SMILES: C=CC(=O)N1C[C@H](C)N(c2nc(=O)n(-c3c(C)ccnc3C(C)C)c3nc(-c4ccccc4C4CC4)c(Cl)cc23)C[C@H]1C (atropisomer, axis not shown; (M)) [Example 92-4, (M)-6-Chloro-7-(2-cyclopropylphenyl)-4-[(2S,5R)-2,5-dimethyl-4-prop-2-enoyl-piperazin-1-yl]-1-(2-isopropyl-4-methyl-3-pyridyl)pyrido [2,3-d]pyrimidin-2-one]
- IC50 ([1]; Homo sapiens, A549, 2 h): > 7.5 µM
- IC50 ([2]; Homo sapiens, MIA PaCa-2, 2 h): 0.042 µM
- IC50 [3]: 0.044 µM

SMILES: C=CC(=O)N1C[C@H](C)N(c2nc(=O)n(-c3c(C)ccnc3C(C)C)c3nc(C4=CCCCCC4)c(Cl)cc23)C[C@H]1C (atropisomer, axis not shown; (M)) [Example 92-10, (M)-6-Chloro-7-(cyclohepten-1-yl)-4-[(2S,5R)-2,5-dimethyl-4-prop-2-enoyl-piperazin-1-yl]-1-(2-isopropyl-4-methyl-3-pyridyl)pyrido [2,3-d]pyrimidin-2-one]
- IC50 ([1]; Homo sapiens, A549, 2 h): > 7.5 µM
- IC50 ([2]; Homo sapiens, MIA PaCa-2, 2 h): 0.367 µM
- IC50 [3]: 0.059 µM

SMILES: C=CC(=O)N1C[C@H](C)N(c2nc(=O)n(-c3c(C)ccnc3C(C)C)c3nc(-c4cccc5cc[nH]c45)c(Cl)cc23)C[C@H]1C (atropisomer, axis not shown; (M)) [Example 92-11, (M)-6-Chloro-4-[(2S,5R)-2,5-dimethyl-4-prop-2-enoyl-piperazin-1-yl]-7-(lH-indol-7-yl)-1-(2-isopropyl-4-methyl-3-pyridyl)pyrido [2,3-d]pyrimidin-2-one]
- IC50 ([1]; Homo sapiens, A549, 2 h): > 7.5 µM
- IC50 ([2]; Homo sapiens, MIA PaCa-2, 2 h): 0.262 µM
- IC50 [3]: 0.086 µM

SMILES: C=CC(=O)N1C[C@H](C)N(c2nc(=O)n(-c3c(C)ccnc3C(C)C)c3nc(-c4ccccc4N)c(Cl)cc23)C[C@H]1C (atropisomer, axis not shown; (M)) [Example 92-12, (M)-7-(2-Aminophenyl)-6-chloro-4-[(2S,5R)-2,5-dimethyl-4-prop-2-enoyl-piperazin-1-yl]-1-(2-isopropyl-4-methyl-3-pyridyl)pyrido[2,3-d]pyrimidin-2-one]
- IC50 ([1]; Homo sapiens, A549, 2 h): > 7.5 µM
- IC50 ([2]; Homo sapiens, MIA PaCa-2, 2 h): 0.022 µM
- IC50 [3]: 0.019 µM

SMILES: C=CC(=O)N1C[C@H](C)N(c2nc(=O)n(-c3c(C)ccnc3C(C)C)c3nc(-c4cccnc4N)c(Cl)cc23)C[C@H]1C (atropisomer, axis not shown; (M)) [Example 92-13, (M)-7-(2-Amino-3-pyridyl)-6-chloro-4-[(2S,5R)-2,5-dimethyl-4-prop-2-enoyl-piperazin-1-yl]-1-(2-isopropyl-4-methyl-3-pyridyl)pyrido [2,3-d]pyrimidin-2-one]
- IC50 ([1]; Homo sapiens, A549, 2 h): > 7.5 µM
- IC50 ([2]; Homo sapiens, MIA PaCa-2, 2 h): 0.251 µM
- IC50 [3]: 0.201 µM

SMILES: C=CC(=O)N1C[C@H](C)N(c2nc(=O)n(-c3c(C)ccnc3C(C)C)c3nc(-c4ccccc4OC(F)F)c(Cl)cc23)C[C@H]1C (atropisomer, axis not shown; (M)) [Example 92-14, (M)-6-Chloro-7-[2-(difluoromethoxy)phenyl]-4-[(2S,5R)-2,5-dimethyl-4-prop-2-enoyl-piperazin-1-yl]-1-(2-isopropyl-4-methyl-3-pyridyl)pyrido [2,3-d]pyrimidin-2-one]
- IC50 ([1]; Homo sapiens, A549, 2 h): > 7.5 µM
- IC50 ([2]; Homo sapiens, MIA PaCa-2, 2 h): 0.074 µM
- IC50 [3]: 0.121 µM

SMILES: C=CC(=O)N1C[C@H](C)N(c2nc(=O)n(-c3c(C)ccnc3C(C)C)c3nc(-c4c(C)ccc5cn[nH]c45)c(Cl)cc23)C[C@H]1C (atropisomer, axis not shown; (M)) [Example 92-15, (M)-6-Chloro-4-[(2S,5R)-2,5-dimethyl-4-prop-2-enoyl-piperazin-1-yl]-1-(2-isopropyl-4-methyl-3-pyridyl)-7-(6-methyl-1H-indazol-7-yl)pyrido[2,3-d]pyrimidin-2-one]
- IC50 ([1]; Homo sapiens, A549, 2 h): > 7.5 µM
- IC50 ([2]; Homo sapiens, MIA PaCa-2, 2 h): 0.125 µM
- IC50 [3]: 0.094 µM

SMILES: C=CC(=O)N1C[C@H](C)N(c2nc(=O)n(-c3c(C)ccnc3C(C)C)c3nc(-c4ccccc4C(F)F)c(Cl)cc23)C[C@H]1C (atropisomer, axis not shown; (M)) [Example 92-16, (M)-6-Chloro-7-[2-(difluoromethyl)phenyl]-4-[(2S,5R)-2,5-dimethyl-4-prop-2-enoyl-piperazin-1-yl]-1-(2-isopropyl-4-methyl-3-pyridyl)pyrido [2,3-d]pyrimidin-2-one]
- IC50 ([1]; Homo sapiens, A549, 2 h): > 7.5 µM
- IC50 ([2]; Homo sapiens, MIA PaCa-2, 2 h): 0.015 µM
- IC50 [3]: 0.043 µM

SMILES: C=CC(=O)N1C[C@H](C)N(c2nc(=O)n(-c3c(C)ccnc3C(C)C)c3nc(-c4cccc(F)c4N)c(Cl)cc23)C[C@H]1C (atropisomer, axis not shown; (M)) [Example 92-17, (M)-7-(2-Amino-3-fluoro-phenyl)-6-chloro-4-[(2S,5R)-2,5-dimethyl-4-prop-2-enoyl-piperazin-1-yl]-1-(2-isopropyl-4-methyl-3-pyridyl)pyrido[2,3-d]pyrimidin-2-one]
- IC50 ([1]; Homo sapiens, A549, 2 h): > 7.5 µM
- IC50 ([2]; Homo sapiens, MIA PaCa-2, 2 h): 0.018 µM
- IC50 [3]: 0.042 µM

SMILES: C=CC(=O)N1C[C@H](C)N(c2nc(=O)n(-c3c(C)ccnc3C(C)C)c3nc(-c4ccccc4NC(C)=O)c(Cl)cc23)C[C@H]1C (atropisomer, axis not shown; (M)) [Example 92-18, (M)-N-[2-[6-Chloro-4-[(2S,5R)-2,5-dimethyl-4-prop-2-enoyl-piperazin-1-yl]-1-(2-isopropyl-4-methyl-3-pyridyl)-2-oxo-pyrido[2,3-d]pyrimidin-7-yl]phenyl] acetamide]
- IC50 ([1]; Homo sapiens, A549, 2 h): > 7.5 µM
- IC50 ([2]; Homo sapiens, MIA PaCa-2, 2 h): 0.17 µM
- IC50 [3]: 0.085 µM

SMILES: C=CC(=O)N1C[C@H](C)N(c2nc(=O)n(-c3c(C)ccnc3C(C)C)c3nc(-c4ccccc4N(C)C)c(Cl)cc23)C[C@H]1C (atropisomer, axis not shown; (M)) [Example 92-19, (M)-6-Chloro-7-[2-(dimethylamino)phenyl]-4-[(2S,5R)-2,5-dimethyl-4-prop-2-enoyl-piperazin-1-yl]-1-(2-isopropyl-4-methyl-3-pyridyl)pyrido [2,3-d]pyrimidin-2-one]
- IC50 ([1]; Homo sapiens, A549, 2 h): > 7.5 µM
- IC50 ([2]; Homo sapiens, MIA PaCa-2, 2 h): 0.027 µM
- IC50 [3]: 0.044 µM

SMILES: C=CC(=O)N1C[C@H](C)N(c2nc(=O)n(-c3c(C)ccnc3C(C)C)c3nc(-c4ccccc4C(N)=O)c(Cl)cc23)C[C@H]1C (atropisomer, axis not shown; (M)) [Example 92-21, (M)-2-[6-Chloro-4-[(2S,5R)-2,5-dimethyl-4-prop-2-enoyl-piperazin-1-yl]-1-(2-isopropyl-4-methyl-3-pyridyl)-2-oxo-pyrido[2,3-d]pyrimidin-7-yl]benzamide]
- IC50 ([1]; Homo sapiens, A549, 2 h): > 7.5 µM
- IC50 ([2]; Homo sapiens, MIA PaCa-2, 2 h): 0.637 µM
- IC50 [3]: 0.051 µM

SMILES: C=CC(=O)N1C[C@H](C)N(c2nc(=O)n(-c3c(C)ccnc3C(C)C)c3nc(-c4ccccc4C(F)(F)F)c(Cl)cc23)C[C@H]1C (atropisomer, axis not shown; (M)) [Example 92-23, (M)-6-Chloro-4-[(2S,5R)-2,5-dimethyl-4-prop-2-enoyl-piperazin-1-yl]-1-(2-isopropyl-4-methyl-3-pyridyl)-7-[2-(trifluoromethyl)phenyl]pyrido [2,3-d]pyrimidin-2-one]
- IC50 ([1]; Homo sapiens, A549, 2 h): > 7.5 µM
- IC50 ([2]; Homo sapiens, MIA PaCa-2, 2 h): 0.036 µM
- IC50 [3]: 0.038 µM

SMILES: C=CC(=O)N1C[C@H](C)N(c2nc(=O)n(-c3c(C)ccnc3C(C)C)c3nc(-c4c(F)cccc4C(N)=O)c(Cl)cc23)C[C@H]1C (atropisomer, axis not shown; (M)) [Example 92-24, (M)-2-[6-Chloro-4-[(2S,5R)-2,5-dimethyl-4-prop-2-enoyl-piperazin-1-yl]-1-(2-isopropyl-4-methyl-3-pyridyl)-2-oxo-pyrido[2,3-d]pyrimidin-7-yl]-3-fluoro-benzamide]
- IC50 ([1]; Homo sapiens, A549, 2 h): > 7.5 µM
- IC50 ([2]; Homo sapiens, MIA PaCa-2, 2 h): 0.116 µM
- IC50 [3]: 0.019 µM

SMILES: C=CC(=O)N1C[C@H](C)N(c2nc(=O)n(-c3c(C)ccnc3C(C)C)c3nc(-c4ccccc4NC)c(Cl)cc23)C[C@H]1C (atropisomer, axis not shown; (M)) [Example 92-25, (M)-6-Chloro-4-[(2S,5R)-2,5-dimethyl-4-prop-2-enoyl-piperazin-1-yl]-1-(2-isopropyl-4-methyl-3-pyridyl)-7-[2-(methylamino)phenyl]pyrido[2,3-d]pyrimidin-2-one]
- IC50 ([1]; Homo sapiens, A549, 2 h): > 7.5 µM
- IC50 ([2]; Homo sapiens, MIA PaCa-2, 2 h): 0.016 µM
- IC50 [3]: 0.04 µM
